In patent EP2065370A1, “2-cyanobenzene sulfonamides as pesticides” (Bayer CropScience AG, priority 2007, dated 2009):

System: Meloidogyne incognita
Experiment: Meloidogyne test (MELGIN spray treatment)
Format: in vivo
Settings: 20 ppm; sand with egg-larvae suspension and lettuce seeds; 100 % = no galls found
From the text: Meloidogyne-Test (MELGIN Spritzbehandlung)
Zur Herstellung einer zweckmäßigen Wirkstoffzubereitung vermischt man 1 Gewichtsteil Wirkstoff mit der angegebenen Menge Lösungsmittel und verdünnt das Konzentrat mit Wasser auf die gewünschte Konzentration.
Gefäße werden mit Sand, Wirkstofflösung, Meloidogyne incognita-Ei-Larven-Suspension und Salatsamen gefüllt. Die Salatsamen keimen und die Pflänzchen entwickeln sich. An den Wurzeln entwickeln sich die Gallen.
Nach der gewünschten Zeit wird die nematizide Wirkung an Hand der Gallenbildung in % bestimmt. Dabei bedeutet 100 %, dass keine Gallen gefunden wurden; 0 % bedeutet, dass die Zahl der Gallen an den behandelten Pflanzen der der unbehandelten Kontrolle entspricht.
Bei diesem Test zeigen z. B. die folgenden Verbindungen der Herstellungsbeispiele eine Wirkung von ≥ 80 % bei einer Aufwandmenge von 20 ppm: Beispiel Nr. I-1, I-2

Compound	nematizide Wirkung an Hand der Gallenbildung [%]
CN(Cc1ccccn1)S(=O)(=O)c1ccccc1C#N [I-1, 2-Cyano-N-methyl-N-(pyridin-2-ylmethyl)benzolsulfonamid]	≥ 80
CN(Cc1ccccn1)S(=O)(=O)c1cccc(F)c1C#N [I-2]	≥ 80
